# Measurements: PMC8318231, “Rate-of-Kill (RoK) assays to triage large compound sets for Chagas disease drug discovery: Application to GSK Chagas Box” (PLoS Neglected Tropical Diseases, 2021)
# Experiments:
# [1] = system: T. cruzi intracellular amastigotes in H9c2 cells; test: Rate-of-Kill (RoK) high-content imaging assay, amastigotes per cell (AM/CELL) and curve descriptors; assay type: cell-based, Trypanosoma cruzi; set-up: key to ME_24h / ME_48h / ME_72h: % reduction in parasite burden (cidal response); t50pct_MCC50 / t50pct_Cmax: unit not given here; conditions: for ME_24h: 24h; for ME_48h: 48h; for ME_72h: 72h; for t50%_Cmax / tlag_Cmax / t50pct_Cmax: at Cmax; for ME_24h (%): maximum effect at 24 h; for ME_24h (%) / ME_48h (%) / ME_72h (%): RoK assay; for ME_48h (%): maximum effect at 48 h; for ME_72h (%): maximum effect at 72 h
# How it was run: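 H9c2 cardiomyocytes infected with T. cruzi trypomastigotes (MOI 8, 18 h), then compounds tested at 5 μM single shot or 11-point 1/3 dilution from 50 μM. DRAQ5-stained nuclei imaged over a time course. Amastigotes per cell normalised to infected cells at 4 h (0%) and non-infected cells (100%).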
# [2] = system: T. cruzi intracellular amastigotes in H9c2 cells; test: RoK combination assay with BNZ; assay type: cell-based, Trypanosoma cruzi; conditions: 50 μM BNZ
# Protocol: The assay was performed following the same experimental procedure mentioned above in the RoK assay. The infected H9c2 cells were treated with final 10 and 50 μM concentrations of BNZ and DMSO before being dispensed into the plates containing the compounds. For the combination with 50 μM BNZ, two plates were incubated for 4 and 24 hours respectively before being fixed. For the combinations with 10 μM BNZ and with DMSO, four plates for each condition were incubated for 4, 24, 48 and 72 hours before being fixed.
# TcCYP51 = conditions: cited from earlier work; for CYP51 pIC50: formerly reported
# [3] = set-up: method as in PMID 25805302; conditions: cited from earlier work
# [4] = maximum percentage of parasite burden reduction reached by any concentration, 24 hours
Structure (SMILES),ME_24h ([1]; figure 5),ME_48h ([1]; figure 5),ME_72h ([1]; figure 5),MCC50 ([1]; RoK curve descriptor) [µM],MCCE ([1]; RoK curve descriptor) [µM],tlag_Cmax [1] [h],t50pct_Cmax ([1]; figure 5),tlag_Cmax ([1]; figure 5),"t50pct_MCC50 ([1]; at MCC50, figure 5)","tlag_MCC50 ([1]; at MCC50, figure 5)",MCCE ([1]; figure 5),ME_24h (%) [1] [%],ME_48h (%) [1] [%],ME_72h (%) [1] [%],CYP51 pIC50 (TcCYP51),"AM/CELL NORM ([1]; Time 4, sheet figure 4 A)","AM/CELL NORM ([1]; Time 24, sheet figure 4 A)","AM/CELL NORM ([1]; Time 48, sheet figure 4 A)","AM/CELL NORM ([1]; Time 72, sheet figure 4 A)","ME 24h (maximum effect at 24 hours, intracellular amastigotes) [1, 4] [%]",further results
"O=C(Cn1ccnc1[N+](=O)[O-])NCc1ccccc1 [Benznidazole, benznidazole, reference compound]",49.8205,84.8832,90.745,31.2,3.9,5.5,34,4,46,7.333,4.172,49.8,84.9,90.7,< 4,,,,,,"ME (maximum effect) in RoK assay (in words) [1]: higher ME values close to 100%; tlag (in words) [1]: short t-lag values; MCCE (Minimal Compound Concentration with Effect) ([1]; Fig 2C, average, lowest concentration that decreases AUC of AM/CELL versus time by at least 50% vs infected control, listed as BNZ): 3.9 µM; MCC50 (Minimal Cidal Concentration 50%) ([1]; Fig 2C, average, lowest concentration that reduces 50% of the parasite load measured at zero time, listed as BNZ): 31.2 µM; t50pct_MCC50 (t50%_MCC50) ([1]; Fig 2C, average, time to reduce 50% of initial parasite load at MCC50, listed as BNZ): 46.2 h; AM/CELL NORM ([1]; Time 4, figure 4 A): 14.6109; AM/CELL NORM ([1]; Time 24, figure 4 A): 40.5448; AM/CELL NORM ([1]; Time 48, figure 4 A): 53.9104; AM/CELL NORM ([1]; Time 72, figure 4 A): 66.8038; Emax at 50 µM ([1]; Trypanosoma cruzi, H9c2, BNZ at 50 μM, 48 hours, read-out: maximum effect): 100%; Emax ([1]; Trypanosoma cruzi, H9c2, maximum percentage of parasite burden reduction reached by any concentration, 24 hours, read-out: ME 24h (maximum effect at 24 hours, intracellular amastigotes)): 49.2%; t50%_Cmax [1]: 35.0 h; t50%_MCC50 ([1]; at MCC50): 46.2 h; tlag_MCC50 ([1]; at MCC50): 8.6 h; MCC50 ([1]; figure 5, in µM): 33.802; AM/CELL ([2]; no compound 1, 4 hours): 2.023; AM/CELL ([2]; no compound 1, 24 hours): 1.3207; CYP51 mean (TcCYP51; TcCYP51 enzyme inhibition, mean, figure 1B, ref original boxes paper): 4.3; average time to interruption of treatment [3]: 26.7 days"
N#Cc1cc(N2CCCC2=O)ccc1Sc1ccccc1CO [TCMDC-143604],-55.9743,36.5881,78.1794,1.9,0.6,24.0,72,24,72,24,0.6173,-56.0,36.6,78.2,4.7,9.146,-84.052,29.3818,78.3167,-55.4036,"t50%_Cmax [1]: 72.0 h; t50%_MCC50 ([1]; at MCC50): 72.0 h; tlag_MCC50 ([1]; at MCC50): 24.0 h; MCC50 ([1]; figure 5, in µM): 1.852"
CCCc1nc2nc(N)nc(N)c2cc1CC [TCMDC-143606],41.1896,50.5934,54.3499,25.9,0.2,4.0,48,4,48,4,0.2058,41.2,50.6,54.4,< 4,30.5298,50.9144,56.204,55.305,50.9144,"MCC and MCCE values (in words) [1]: low MCC and MCCE values; ME (maximum effect) in RoK assay (in words) [1]: high ME value; tlag times [1]: 4 h; t50%_Cmax [1]: 60.0 h; t50%_MCC50 ([1]; at MCC50): 48.0 h; tlag_MCC50 ([1]; at MCC50): 4.0 h; MCC50 ([1]; figure 5, in µM): 25.9259"
COc1ccccc1-c1c(C)[nH]c2nc(N)nc(C)c12 [TCMDC-143610],50.657,69.1206,72.4769,2.4,0.3,4.0,54,4,48,4,0.3086,44.7,65.4,70.3,4.1,4.093,33.8882,64.2982,71.534,71.8108,"ME (maximum effect) in RoK assay (in words) [1]: high values in ME at the different times; tlag (in words) [1]: short tlag; t50%_Cmax [1]: 48.0 h; t50%_MCC50 ([1]; at MCC50): 52.8 h; tlag_MCC50 ([1]; at MCC50): 4.0 h; MCC50 ([1]; figure 5, in µM): 1.543"
CCCCNc1nccc(-c2c(-c3ccc(F)cc3)nn3c(N4CCOCC4)cccc23)n1 [TCMDC-143617],-170.943,-538.575,-488.335,,5.6,72.0,72,72,72,72,5.556,-170.9,-538.6,-488.3,< 4,-16.0226,-225.539,-1143.86,-2417.88,-170.943,MCC50 ([1]; figure 5): 50 µM
CN(C)CCOc1ccc(N2CCN(S(=O)(=O)c3ccc(Cl)cc3)CC2)cc1 [TCMDC-143622],11.982,63.0909,72.2951,1.9,1.9,4.0,48,4,72,24,1.852,12.0,63.1,72.3,4.6,6.264,11.982,63.0909,55.0876,11.982,"t50%_Cmax [1]: 48.0 h; t50%_MCC50 ([1]; at MCC50): 72.0 h; tlag_MCC50 ([1]; at MCC50): 24.0 h; MCC50 ([1]; figure 5, in µM): 1.852"
CN(C)Cc1ccc(N2CCC(NS(=O)(=O)c3ccc(Cl)cc3)CC2)cc1 [TCMDC-143623],-87.7558,-504.665,-765.031,1.9,1.0,38.0,60,38,72,48,1.029,-87.8,-504.7,-765.0,< 4,,,,,25.2228,"ME (maximum effect) in RoK assay (in words) [1]: positive ME throughout all times; cidality in the RoK assay (in words) [1]: cidal; tlag (in words) [1]: short tlag times; AM/CELL NORM ([1]; Time 4, figure 4 A): -0.7307; AM/CELL NORM ([1]; Time 24, figure 4 A): -44.6697; AM/CELL NORM ([1]; Time 48, figure 4 A): 60.0074; AM/CELL NORM ([1]; Time 72, figure 4 A): 92.6225; t50%_Cmax [1]: 60.0 h; t50%_MCC50 ([1]; at MCC50): 72.0 h; tlag_MCC50 ([1]; at MCC50): 24.0 h; MCC50 ([1]; figure 5, in µM): 25.9259"
O=c1[nH]ccc2ccc(-c3ccncc3)cc12 [TCMDC-143631],-43.2523,-170.763,18.409,,0.6,48.0,72,48,72,72,0.6173,-43.3,-170.8,18.4,7.8,-16.1027,-43.2523,-202.655,18.409,-43.2523,MCC50 ([1]; figure 5): 50 µM
O=C(O)/C=C\C(=O)O.O=C(c1ccc(OCCCc2cnc[nH]2)cc1)C1CC1 [TCMDC-143632],-9.2427,8.208,46.1088,,5.6,24.0,72,24,72,72,5.556,-9.2,8.2,46.1,7.3,10.5519,-53.2211,-4.213,38.8877,-9.2427,MCC50 ([1]; figure 5): 50 µM
